# Experimental data published in patent US8580918B2, “Peptidic GLP-2 agonists” (Ferring B.V., priority 2009, dated 2013).
# Where a SMILES comes first, the peptide text is derived from it. [ ]: non-standard residue; d: D form. Dip = N[C@H](C(=O)O)C(c1ccccc1)c1ccccc1; Phe(4-NH2) = Nc1ccc(C[C@H](N)C(=O)O)cc1; 2Nal = N[C@@H](Cc1ccc2ccccc2c1)C(=O)O; hPhe = N[C@@H](CCc1ccccc1)C(=O)O; Cha = N[C@@H](CC1CCCCC1)C(=O)O; Nle = CCCC[C@H](N)C(=O)O
# Assay: Pharmacokinetics in rats after intravenous bolus injection (systemic clearance)
# Assay type: in vivo
# Settings: rat, plasma, 0.2 mg FB/kg, adult male Sprague-Dawley rats, i.v. bolus, dose 0.20 mg FB/kg, read-out: CL (ml/kg/min) Average
# Method: Pharmacokinetic (PK) parameters of illustrative agonists of the GLP-2 receptor were determined in adult male Sprague-Dawley rats post intravenous bolus injection of compounds at doses of 0.1-1.0 mg/kg. Three or four doubly cannulated animals per compound were dosed via jugular vein, blood samples were collected at several intervals via carotid artery, and plasma samples were prepared from whole blood using K2EDTA as anticoagulant. Subsequent bioanalysis of samples included compound extraction and plasma concentration determination using standard LC/MS/MS methods. Analyte concentration was calculated from internal standard normalized peak area and calibration curves.
# For calculation of PK parameters the compound concentration-time curves were analyzed with the noncompartmental data analysis software package PK Solutions 2.0™ (Summit Research Services, Montrose Colo.). The systemic clearance per kg body weight (CL) was calculated as the dose per kg body weight divided by the AUC extrapolated to infinity based on trapezoid calculation (AUC∞). Values reported are the arithmetic mean and standard deviation from the number of animals used for each compound as indicated on Table 3.
row,clearance,SMILES
1,0.5 mL/kg/min,"CCCC[C@H](NC(=O)[C@H](CCC(=O)O)NC(=O)[C@H](CC(=O)O)NC(=O)[C@H](CO)NC(=O)[C@H](Cc1ccccc1)NC(=O)[C@H](CO)NC(=O)CNC(=O)[C@H](CC(=O)O)NC(=O)CNC(=O)[C@@H](N)Cc1c[nH]cn1)C(=O)N[C@@H](CC(N)=O)C(=O)N[C@H](C(=O)N[C@H](C(=O)N[C@@H](CC(C)C)C(=O)N[C@@H](CC(=O)O)C(=O)N[C@@H](Cc1c[nH]c2ccccc12)C(=O)N[C@@H](CC(C)C)C(=O)N[C@@H](C)C(=O)N[C@@H](C)C(=O)N[C@@H](CCCNC(=N)N)C(=O)N[C@@H](CC(=O)O)C(=O)N[C@@H](Cc1ccccc1)C(=O)N[C@H](C(=O)N[C@@H](CC(N)=O)C(=O)N[C@@H](Cc1c[nH]c2ccccc12)C(=O)N[C@@H](CC(C)C)C(=O)N[C@H](C(=O)N[C@@H](CCC(N)=O)C(=O)N[C@H](C(=O)N[C@@H](CCCCN)C(N)=O)[C@@H](C)O)[C@@H](C)CC)[C@@H](C)CC)[C@@H](C)CC)[C@@H](C)O [Compound 22, [Gly2,Nle10,Trp16] hGLP-2 (1-30)-NH2] (H-HGDGSFSDE[Nle]NTILDWLAARDFINWLIQTK-NH2)"
2,0.41 mL/kg/min,"CCCC[C@H](NC(=O)[C@H](CCC(=O)O)NC(=O)[C@H](CC(=O)O)NC(=O)[C@H](CO)NC(=O)[C@H](Cc1ccccc1)NC(=O)[C@H](CO)NC(=O)CNC(=O)[C@H](CC(=O)O)NC(=O)CNC(=O)[C@@H](N)Cc1cnc[nH]1)C(=O)N[C@@H](CC(N)=O)C(=O)N[C@H](C(=O)N[C@H](C(=O)N[C@@H](CC(C)C)C(=O)N[C@@H](CC(=O)O)C(=O)N[C@@H](CC1CCCCC1)C(=O)N[C@@H](CC(C)C)C(=O)N[C@@H](C)C(=O)N[C@@H](C)C(=O)N[C@@H](CCCNC(=N)N)C(=O)N[C@@H](CC(=O)O)C(=O)N[C@@H](Cc1ccccc1)C(=O)N[C@H](C(=O)N[C@@H](CC(N)=O)C(=O)N[C@@H](Cc1c[nH]c2ccccc12)C(=O)N[C@@H](CC(C)C)C(=O)N[C@H](C(=O)N[C@@H](CCC(N)=O)C(=O)N[C@H](C(=O)N[C@@H](CCCCN)C(N)=O)[C@@H](C)O)[C@@H](C)CC)[C@@H](C)CC)[C@@H](C)CC)[C@@H](C)O [Compound 23, [Gly2,Nle10,Cha16] hGLP-2 (1-30)-NH2] (H-HGDGSFSDE[Nle]NTILD[Cha]LAARDFINWLIQTK-NH2)"
3,1.9 mL/kg/min,"CCCC[C@H](NC(=O)[C@H](CCC(=O)O)NC(=O)[C@H](CC(=O)O)NC(=O)[C@H](CO)NC(=O)[C@H](Cc1ccccc1)NC(=O)[C@H](CO)NC(=O)CNC(=O)[C@H](CC(=O)O)NC(=O)CNC(=O)[C@@H](N)Cc1c[nH]cn1)C(=O)N[C@@H](CC(N)=O)C(=O)N[C@H](C(=O)N[C@H](C(=O)N[C@@H](CC(C)C)C(=O)N[C@@H](CC(=O)O)C(=O)N[C@@H](Cc1ccc(N)cc1)C(=O)N[C@@H](CC(C)C)C(=O)N[C@@H](C)C(=O)N[C@@H](C)C(=O)N[C@@H](CCCNC(=N)N)C(=O)N[C@@H](CC(=O)O)C(=O)N[C@@H](Cc1ccccc1)C(=O)N[C@H](C(=O)N[C@@H](CC(N)=O)C(=O)N[C@@H](Cc1c[nH]c2ccccc12)C(=O)N[C@@H](CC(C)C)C(=O)N[C@H](C(=O)N[C@@H](CCC(N)=O)C(=O)N[C@H](C(=O)N[C@@H](CCCCN)C(N)=O)[C@@H](C)O)[C@@H](C)CC)[C@@H](C)CC)[C@@H](C)CC)[C@@H](C)O [Compound 24, [Gly2,Nle10,Aph16] hGLP-2 (1-30)-NH2] (H-HGDGSFSDE[Nle]NTILD[Phe(4-NH2)]LAARDFINWLIQTK-NH2)"
4,0.33 mL/kg/min,"CCCC[C@H](NC(=O)[C@H](CCC(=O)O)NC(=O)[C@H](CC(=O)O)NC(=O)[C@H](CO)NC(=O)[C@H](Cc1ccccc1)NC(=O)[C@H](CO)NC(=O)CNC(=O)[C@H](CC(=O)O)NC(=O)CNC(=O)[C@@H](N)Cc1c[nH]cn1)C(=O)N[C@@H](CC(N)=O)C(=O)N[C@H](C(=O)N[C@H](C(=O)N[C@@H](CC(C)C)C(=O)N[C@@H](CC(=O)O)C(=O)N[C@H](C(=O)N[C@@H](CC(C)C)C(=O)N[C@@H](C)C(=O)N[C@@H](C)C(=O)N[C@@H](CCCNC(=N)N)C(=O)N[C@@H](CC(=O)O)C(=O)N[C@@H](Cc1ccccc1)C(=O)N[C@H](C(=O)N[C@@H](CC(N)=O)C(=O)N[C@@H](Cc1c[nH]c2ccccc12)C(=O)N[C@@H](CC(C)C)C(=O)N[C@H](C(=O)N[C@@H](CCC(N)=O)C(=O)N[C@H](C(=O)N[C@@H](CCCCN)C(N)=O)[C@@H](C)O)[C@@H](C)CC)[C@@H](C)CC)C(c1ccccc1)c1ccccc1)[C@@H](C)CC)[C@@H](C)O [Compound 26, [Gly2,Nle10,Dip16] hGLP-2 (1-30)-NH2] (H-HGDGSFSDE[Nle]NTILD[Dip]LAARDFINWLIQTK-NH2)"
5,0.44 mL/kg/min,"CCCC[C@H](NC(=O)[C@H](CCC(=O)O)NC(=O)[C@H](CC(=O)O)NC(=O)[C@H](CO)NC(=O)[C@H](Cc1ccccc1)NC(=O)[C@H](CO)NC(=O)CNC(=O)[C@H](CC(=O)O)NC(=O)CNC(=O)[C@@H](N)Cc1c[nH]cn1)C(=O)N[C@@H](CC(N)=O)C(=O)N[C@H](C(=O)N[C@H](C(=O)N[C@@H](CC(C)C)C(=O)N[C@@H](CC(=O)O)C(=O)N[C@@H](CCc1ccccc1)C(=O)N[C@@H](CC(C)C)C(=O)N[C@@H](C)C(=O)N[C@@H](C)C(=O)N[C@@H](CCCNC(=N)N)C(=O)N[C@@H](CC(=O)O)C(=O)N[C@@H](Cc1ccccc1)C(=O)N[C@H](C(=O)N[C@@H](CC(N)=O)C(=O)N[C@@H](Cc1c[nH]c2ccccc12)C(=O)N[C@@H](CC(C)C)C(=O)N[C@H](C(=O)N[C@@H](CCC(N)=O)C(=O)N[C@H](C(=O)N[C@@H](CCCCN)C(N)=O)[C@@H](C)O)[C@@H](C)CC)[C@@H](C)CC)[C@@H](C)CC)[C@@H](C)O [Compound 28, [Gly2,Nle10,hPhe16] hGLP-2 (1-30)-NH2] (H-HGDGSFSDE[Nle]NTILD[hPhe]LAARDFINWLIQTK-NH2)"

# Same assay, conditions: rat, plasma, adult male Sprague-Dawley rats, i.v. bolus, dose 0.18 mg FB/kg, read-out: CL (ml/kg/min) Average
row,clearance,SMILES
1,0.28 mL/kg/min,"CCCC[C@H](NC(=O)[C@H](CCC(=O)O)NC(=O)[C@H](CC(=O)O)NC(=O)[C@H](CO)NC(=O)[C@H](Cc1ccccc1)NC(=O)[C@H](CO)NC(=O)CNC(=O)[C@H](CC(=O)O)NC(=O)CNC(=O)[C@@H](N)Cc1c[nH]cn1)C(=O)N[C@@H](CC(N)=O)C(=O)N[C@H](C(=O)N[C@H](C(=O)N[C@@H](CC(C)C)C(=O)N[C@@H](CC(=O)O)C(=O)N[C@@H](Cc1ccc2ccccc2c1)C(=O)N[C@@H](CC(C)C)C(=O)N[C@@H](C)C(=O)N[C@@H](C)C(=O)N[C@@H](CCCNC(=N)N)C(=O)N[C@@H](CC(=O)O)C(=O)N[C@@H](Cc1ccccc1)C(=O)N[C@H](C(=O)N[C@@H](CC(N)=O)C(=O)N[C@@H](Cc1c[nH]c2ccccc12)C(=O)N[C@@H](CC(C)C)C(=O)N[C@H](C(=O)N[C@@H](CCC(N)=O)C(=O)N[C@H](C(=O)N[C@@H](CCCCN)C(N)=O)[C@@H](C)O)[C@@H](C)CC)[C@@H](C)CC)[C@@H](C)CC)[C@@H](C)O [Compound 20, [Gly2,Nle10,2-Nal16] hGLP-2 (1-30)-NH2] (H-HGDGSFSDE[Nle]NTILD[2Nal]LAARDFINWLIQTK-NH2)"
